≈ marks a conversion by molar mass, not a printed value.

Type in all cases: cell-based, Candida albicans
For assay [1], the system named is C. albicans ATCC 10231. Briefly: Mitochondrial dehydrogenases activity, MTT reduction assay. The following applies: 8 μg/mL, 2 h. How it is done: In order to determine whether compound 1 could also affect mitochondrial function, MTT reduction assay was performed. In this assay, tetrazolium salts are reduced to purple formazan derivatives by mitochondrial dehydrogenases, which can be measured spectrophotometrically and reported to mitochondrial activity and, indirectly, to cell viability. In this assay, cells were exposed to the test compounds for 2 h ([FIG. 11]). […] An increase in reactive oxygen species (ROS) has been linked to azoles activity: even though their primary mode of action is the inhibition of ergosterol synthesis, they also induce accumulation of ROS, which enhances their antifungal activity and translates into an increase in mitochondrial activity at inhibitory concentrations. […] Mitochondrial dehydrogenase activity was evaluated by the MTT assay, as previously described, with some modifications. Cell suspensions of C. albicans ATCC 10231 were prepared in the same manner as described above and, after overnight incubation at 36° C., were centrifuged at 3500 rpm for 15 min, the supernatant was removed, and the cells were carefully resuspended in 2 mL of RPMI. Test conditions and controls were the same as described above, but the time of exposure to the test compounds was 2 h. After the exposure time, cell suspensions were centrifuged at 3500 rpm for 10 min, the supernatant was removed, and 500 μL of MTT solution (0.5 mg/mL in RPMI, at 35° C.) (Thiazolyl Blue Tetrazolium Bromide, Alfa Aesar, Ward Hill, MA, USA) were added. After a 1 h incubation at 35° C., the insoluble formazan product resulting from the conversion of MTT by mitochondrial dehydrogenases of metabolically active cells was solubilized with 300 μL of DMSO. 100 μL of each sample were transferred in duplicate to a microtiter plate and the extent of the reduction of MTT to formazan was quantified by measuring the absorbance at 570 nm. Three independent assays were performed in duplicate, and the results are expressed as percentage of MTT reduction, using the untreated cells as control.
For orientation: Tetrazolium dyes change colour on reduction, which living cells bring about.

In assay [2] the test system is C. albicans ATCC 10231. Briefly: Ergosterol binding assay. How it is done: Ceragenins have been described to interact with the lipophilic environment of microbial membranes and ergosterol is the major sterol component of fungal plasma membrane, and the target of several antifungals. As such, in order to evaluate the ability of compound 1 to bind to membrane ergosterol of C. albicans ATCC 10231, MICs were determined in the absence and presence of exogenous ergosterol ([FIG. 10]). If the tested compound has the ability to perturb membrane integrity by binding to ergosterol, is expected that, in the presence of exogenous ergosterol, the compound binds to it, decreasing the amount of compound available to bind to membrane ergosterol, therefore increasing the MIC. Amphotericin B was used as a positive control for this assay and MICs obtained were 8 times higher in the presence of 400 μg/mL of exogenous ergosterol than in its absence (2 to 16 μg/mL, data not shown). […] The ability of compound 1 to bind to membrane ergosterol of C. albicans ATCC 10231, was evaluated by the ergosterol binding assay, as previously described. Briefly, MICs of compound 1 were determined by broth microdilution, as described above, in the absence and presence of ergosterol (Sigma-Aldrich, St. Louis, MO, USA) at a final concentration of 400 μg/mL. Ergosterol was prepared immediately before being added to the plates, by maceration and dissolution in DMSO. The formed emulsion was then homogenized, heated to increase solubility, and diluted in RPMI. Amphotericin B was used as positive control. Plates were incubated at 35° C. for 48 h and MICs were determined as described above. At least two independent assays were performed.

Assay [3] relates to C. albicans ATCC 10231. Briefly: Propidium iodide influx assay (SYTO 9/PI). The following applies: 8 μg/mL, 5 min.
Experimental: Influx of PI in C. albicans ATCC 10231 treated with compound 1 was evaluated using a commercial kit, which includes fluorescent nucleic acid stains SYTO™ 9 and PI, and measurements were conducted in a fluorescence microplate reader. […] The ability of PI to penetrate cells with damaged membranes makes it suitable for studying the effect of drugs on cell membranes.
In order to assess membrane integrity by the PI influx assay, a commercial kit was used (LIVE/DEAD® BacLight™ Bacterial Viability Kit, for microscopy & quantitative assays, Invitrogen by Thermo Fisher Scientific, Waltham, MA, USA), which includes fluorescent nucleic acid stains SYTO® 9 and PI. Briefly, C. albicans ATCC 10231 colonies from overnight cultures in SDA were suspended in sterile saline and adjusted to 0.5 McFarland. This suspension was then diluted in RPMI (1:50 followed by 1:20) to achieve a final concentration of 0.5-2.5×10^3 CFU/mL and the tubes were incubated overnight at 36° C. in a water bath with shaking. The following day, the cell suspensions were centrifuged at 3500 rpm for 15 min, the supernatant was removed, and the cells were carefully resuspended in 2 mL of 0.85% NaCl (VWR International, Radnor, PA, USA) prepared in ultrapure water. An aliquot of this suspension was then added to each tube of 0.85% NaCl alone (control) or 0.85% NaCl plus an appropriate amount of test compound, in a 1:10 proportion. […] Fluorescence intensity of the stained yeast suspensions was obtained in a microplate reader (Synergy HT, BioTek Instruments) by two consecutive measurements: with excitation wavelength 485 nm and emission wavelength 528 nm (SYTO® 9) and with excitation wavelength 485 nm and emission wavelength 590 nm (PI). Data were analyzed by subtracting background fluorescence from each sample, dividing fluorescence intensity of SYTO® 9 by fluorescence intensity of PI, and are presented as a percentage of control. […]

With `C[C@@H]1[C@H](O)[C@@H](C)/C=C/C=C/C=C/C=C/C=C/C=C/C=C/[C@H](O[C@@H]2O[C@H](C)[C@@H](O)[C@H](N)[C@@H]2O)C[C@@H]2O[C@](O)(C[C@@H](O)C[C@@H](O)[C@H](O)CC[C@@H](O)C[C@@H](O)CC(=O)O[C@H]1C)C[C@H](O)[C@H]2C(=O)O` [Amphotericin B], the “mitochondrial activity (MTT reduction) vs untreated control” value in assay [1] was “significantly reduced”. Further, the “increase of MIC in the presence of exogenous ergosterol” value in assay [2] (400 μg/mL ergosterol vs absence) stood at 8 times. Besides, the MIC is 2 µg/mL (≈ 2.16 µM) in assay [2] (absence of exogenous ergosterol) and 16 µg/mL in assay [2] (presence of 400 μg/mL of exogenous ergosterol). Moreover, in assay [3], the “reduction of SYTO 9/PI ratio vs untreated control” value is recorded as “statistically significant”.

A word on the MIC: it is the smallest concentration in the dilution series that meets the test's criterion for growth inhibition.

The values are drawn from patent publication US20250002450A1, “CATIONIC STEROID COMPOUNDS, METHOD OF OBTAINING THEREOF, FORMULATIONS COMPRISING THEREOF AND THEIR USES” (UNIVERSIDADE DO PORTO, priority 2021, published 2025).
